Laboratory results from BigSolDB 2.1.

O=C(N[C@H](Cc1c[nH]c2ccccc12)C(=O)O)OCC1c2ccccc2-c2ccccc21
Conditions | solubility (mole fraction)
in acetone, 283.15 K | 0.0377
in acetone, 288.15 K | 0.0387
in acetone, 293.15 K | 0.0407
in acetone, 298.15 K | 0.0432
in acetone, 303.15 K | 0.0456
in acetone, 308.15 K | 0.0483
in acetone, 313.15 K | 0.0533
in acetone, 318.15 K | 0.059
in acetone, 323.15 K | 0.0651
in acetonitrile, 283.15 K | 0.00128
in acetonitrile, 288.15 K | 0.0015
in acetonitrile, 293.15 K | 0.00164
in acetonitrile, 298.15 K | 0.00197
in acetonitrile, 303.15 K | 0.00229
in acetonitrile, 308.15 K | 0.00296
in acetonitrile, 313.15 K | 0.00382
in acetonitrile, 318.15 K | 0.00498
in acetonitrile, 323.15 K | 0.0067
in ethanol, 283.15 K | 0.00439
in ethanol, 288.15 K | 0.00448
in ethanol, 293.15 K | 0.00492
in ethanol, 298.15 K | 0.00538
in ethanol, 303.15 K | 0.00604
in ethanol, 308.15 K | 0.00688
in ethanol, 313.15 K | 0.00763
in ethanol, 318.15 K | 0.00893
in ethanol, 323.15 K | 0.0103
in ethyl acetate, 283.15 K | 0.00673
in ethyl acetate, 288.15 K | 0.00688
in ethyl acetate, 293.15 K | 0.00733
in ethyl acetate, 298.15 K | 0.0079
in ethyl acetate, 303.15 K | 0.00866
in ethyl acetate, 308.15 K | 0.00931
in ethyl acetate, 313.15 K | 0.0101
in ethyl acetate, 318.15 K | 0.0111
in ethyl acetate, 323.15 K | 0.0123
in isobutanol, 283.15 K | 0.00112
in isobutanol, 288.15 K | 0.00118
in isobutanol, 293.15 K | 0.00147
in isobutanol, 298.15 K | 0.0019
in isobutanol, 303.15 K | 0.00222
in isobutanol, 308.15 K | 0.00244
in isobutanol, 313.15 K | 0.00294
in isobutanol, 318.15 K | 0.00363
in isobutanol, 323.15 K | 0.00458
in isopropanol, 283.15 K | 0.00176
in isopropanol, 288.15 K | 0.00206
in isopropanol, 293.15 K | 0.00244
in isopropanol, 298.15 K | 0.00309
in isopropanol, 303.15 K | 0.00365
in isopropanol, 308.15 K | 0.00469
in isopropanol, 313.15 K | 0.00545
in isopropanol, 318.15 K | 0.00642
in isopropanol, 323.15 K | 0.00814
in methanol, 283.15 K | 0.00434
in methanol, 283.16 K | 0.0044
in methanol, 283.17 K | 0.00446
in methanol, 283.18 K | 0.00452
in methanol, 283.19 K | 0.00458
in methanol, 288.15 K | 0.00437
in methanol, 288.16 K | 0.00443
in methanol, 288.17 K | 0.00449
in methanol, 288.18 K | 0.00455
in methyl acetate, 283.15 K | 0.00812
in methyl acetate, 288.15 K | 0.00881
in methyl acetate, 293.15 K | 0.0097
in methyl acetate, 298.15 K | 0.0102
in methyl acetate, 303.15 K | 0.0112
in methyl acetate, 308.15 K | 0.0126
in methyl acetate, 313.15 K | 0.014
in methyl acetate, 318.15 K | 0.0159
in methyl acetate, 323.15 K | 0.0174
in n-butanol, 283.15 K | 0.00247
in n-butanol, 288.15 K | 0.00264
in n-butanol, 293.15 K | 0.00297
in n-butanol, 298.15 K | 0.0034
in n-butanol, 303.15 K | 0.00417
in n-butanol, 308.15 K | 0.0046
in n-butanol, 313.15 K | 0.00552
in n-butanol, 318.15 K | 0.00656
in n-butanol, 323.15 K | 0.00807
in n-butyl acetate, 283.15 K | 0.00381
in n-butyl acetate, 288.15 K | 0.00396
in n-butyl acetate, 293.15 K | 0.0042
in n-butyl acetate, 298.15 K | 0.00449
in n-butyl acetate, 303.15 K | 0.00481
in n-butyl acetate, 308.15 K | 0.00533
in n-butyl acetate, 313.15 K | 0.00581
in n-butyl acetate, 318.15 K | 0.00636
in n-butyl acetate, 323.15 K | 0.00743
in n-propanol, 283.15 K | 0.00255
in n-propanol, 288.15 K | 0.003
in n-propanol, 293.15 K | 0.00336
in n-propanol, 298.15 K | 0.00378
in n-propanol, 303.15 K | 0.00422
in n-propanol, 308.15 K | 0.0049
in n-propanol, 313.15 K | 0.00587
in n-propanol, 318.15 K | 0.00683
in n-propanol, 323.15 K | 0.00825
in n-propyl acetate, 283.15 K | 0.00437
in n-propyl acetate, 288.15 K | 0.00461
in n-propyl acetate, 293.15 K | 0.00506
in n-propyl acetate, 298.15 K | 0.0055
in n-propyl acetate, 303.15 K | 0.00595
in n-propyl acetate, 308.15 K | 0.00658
in n-propyl acetate, 313.15 K | 0.0071
in n-propyl acetate, 318.15 K | 0.00793
in n-propyl acetate, 323.15 K | 0.00903
